{"source": "patent US20120083522A1", "about": "“MODULATION OF INFLAMMATORY RESPONSES BY FACTOR XI” (Isis Pharmaceuitcals, inc., priority 2009, published 2012)", "key": {"[1]": {"experiment": "Tolerability in CD1 mice: organ weight (Example 17)", "type": "in vivo", "settings": "50 mg/kg s.c. twice a week, 2 weeks, vs PBS control, normalized to body weight", "description": "Three days after the last dose was administered to all groups, the mice were sacrificed."}, "[2]": {"tested_on": "IFN-γ, IL-10, IL-12, IL-1β, IL-2, IL-4, IL-5, TNF-α, KC", "experiment": "Colitis Study E: cytokine levels in colon (multiplex ELISA)", "type": "in vivo, Swiss Webb mice", "settings": "for IFN-γ level in the colon / IL-1β level in the colon / IL-2 level in the colon / IL-4 level in the colon / IL-5 level in the colon / IL-10 level in the colon / IL-12 level in the colon / KC level in the colon / TNF-α level in the colon: DSS-treated mice", "description": "Two groups 8 Swiss Webb mice were dosed with 40 mg/kg of ISIS 404071 injected subcutaneously twice a week for 3 weeks. Two control groups of 8 Swiss Webb mice were dosed with PBS subcutaneously twice a week for 3 weeks. Both the ASO treated groups and one of the control groups were then given 4% DSS in distilled water for 7 days ad libitum. One of the ASO and DSS treated groups was also given intravenous injections of 20 μg of recombinant human Factor XI protein (Haematologic Technologies Inc.) for 7 consecutive days, starting the day before DSS treatment. Mice were sacrificed at the end of the study on day 7 after DSS was administered.\nThe cytokine levels of IFN-γ, IL-10, IL-12, IL-1β, IL-2, IL-4, IL-5, TNF-α, and keratinocyte chemoattractant (KC) were measured in the colon of the mice groups at the end of the study on day 7 after DSS was administered. Colons were homogenized on ice in PBS supplemented with protease inhibitors (Sigma, St. Louis, Mo.) and extracted with rotation at 4° C. for 1 hour. After removal of insoluble material by centrifugation, colon homogenates were used for the cytokine analysis by multiplex ELISA (Mouse TH1/TH2 9-Plex Ultra-Sensitive Kit, Meso Scale Discovery, Gaithersburg, Md.) according to the manufacture's protocol. Cytokine levels in colon extracts were normalized to the protein concentration measured by protein assay kit (BioRad, Hercules, Calif.). The levels of pro-inflammatory cytokines, IFN-γ, IL-1β, IL-10, IL-2, IL-5, TNF-α, and KC were elevated by DSS administration, and were decreased by treatment with ISIS 404071."}, "[3]": {"tested_on": "OVA/alum-induced asthma model", "experiment": "OVA-induced asthma model: BAL eosinophil recruitment (Example 13)", "type": "in vivo, BALB/c mice", "description": "The effect of antisense oligonucleotide inhibition of Factor XI and its role in ameliorating asthma was evaluated in an OVA/alum-induced asthma model. Administration of ovalbumin to animals is a well known method to induce […] and has been previously described by Henderson et al. (J. Exp. Med., 1996, 184: 1483-1494).\nThe mice were divided into four treatment groups of 5 mice each. One group received subcutaneous injections of ISIS 404071 at a dose of 50 mg/kg twice a week for 4 weeks. One group of mice received subcutaneous injections of control oligonucleotide, ISIS 421208, which is a mismatch oligonucleotide sequence of ISIS 404071, at a dose of 50 mg/kg twice a week for 4 weeks. Two groups of mice received subcutaneous injections of PBS twice a week for 4 weeks. One PBS group remained untreated and served as the control group. The second PBS group and both the oligonucleotide treated groups were injected with OVA/alum on days 0 and 14 and nebulized with OVA in PBS on days 24, 25, and 26. The first OVA application served to sensitize the mice against OVA while the second was a challenge application to provoke an asthmatic reaction. Two days following the final dose, the mice were euthanized, bronchial lavage (BAL) was collected and analyses done.\nBronchial asthma, even in its mild form, is characterized by local infiltration and activation of inflammatory and immunoeffector cells, including T lymphocytes, macrophages, eosinophils, and mast cells (Smith D. L. et al., Am. Rev. Respir. Dis. 1993. 148: 523-532). The effect of treatment with ISIS 404071 on bronchoalveolar lavage (BAL) eosinophil recruitment was assessed. BAL cells were stained with hemotoxylin and eosin (H&E). The results are presented in Table 49 as a percentage of total cells in BAL."}}, "note": "In the oligonucleotide strings, read from the 5' end, every base follows the letter of its sugar. An asterisk marks phosphorothioate; unmarked linkages are phosphodiester. Other units and linkages are bracketed, terminal groups are in braces. A string of capitals states the bases alone. e = 2'-O-(2-methoxyethyl) (MOE); [5mC] = 5-methylcytosine; d = 2'-deoxy (DNA)"}
{"substance": "416850 (antisense TGCACAGTTTCTGGCAGGCC; 5-10-5 gapmer, wing sugar chemistry not given here, further chemistry not given here) [compound 416850]", "values": [{"measurement": "Percent change in kidney weight", "setting": "[1]", "value": "−10", "unit": "%"}]}
{"substance": "TGGTAATCCACTTTCAGAGG (eT*eG*eG*eT*eA*dA*dT*d[5mC]*d[5mC]*dA*d[5mC]*dT*dT*dT*d[5mC]*eA*eG*eA*eG*eG) [ISIS 404071, 5-10-5 MOE gapmer targeting murine Factor XI, target start site 869]", "values": [{"measurement": "pro-inflammatory cytokine levels in colon: IFN-γ, IL-1β, IL-10, IL-2, IL-5, TNF-α, KC (in words)", "setting": "[2]; Colitis Study E, day 7", "value": "decreased"}, {"measurement": "IFN-γ level in the colon", "setting": "[2]; day 7, no rFXI", "value": 1.10, "unit": "pg/mg"}, {"measurement": "IL-1β level in the colon", "setting": "[2]; day 7, no rFXI", "value": 50, "unit": "pg/mg"}, {"measurement": "IL-2 level in the colon", "setting": "[2]; day 7, no rFXI", "value": 0.11, "unit": "pg/mg"}, {"measurement": "IL-4 level in the colon", "setting": "[2]; day 7, no rFXI", "value": 0.012, "unit": "pg/mg"}, {"measurement": "IL-5 level in the colon", "setting": "[2]; day 7, no rFXI", "value": 0.04, "unit": "pg/mg"}, {"measurement": "IL-10 level in the colon", "setting": "[2]; day 7, no rFXI", "value": 4.7, "unit": "pg/mg"}, {"measurement": "IL-12 level in the colon", "setting": "[2]; day 7, no rFXI", "value": 64, "unit": "pg/mg"}, {"measurement": "KC level in the colon", "setting": "[2]; day 7, no rFXI", "value": 27, "unit": "pg/mg"}, {"measurement": "TNF-α level in the colon", "setting": "[2]; day 7, no rFXI", "value": 0.24, "unit": "pg/mg"}, {"measurement": "IFN-γ level in the colon", "setting": "[2]; day 7, plus rFXI 20 ug/day", "value": 4.51, "unit": "pg/mg"}, {"measurement": "IL-1β level in the colon", "setting": "[2]; day 7, plus rFXI 20 ug/day", "value": 103, "unit": "pg/mg"}, {"measurement": "IL-2 level in the colon", "setting": "[2]; day 7, plus rFXI 20 ug/day", "value": 0.28, "unit": "pg/mg"}, {"measurement": "IL-4 level in the colon", "setting": "[2]; day 7, plus rFXI 20 ug/day", "value": 0.004, "unit": "pg/mg"}, {"measurement": "IL-5 level in the colon", "setting": "[2]; day 7, plus rFXI 20 ug/day", "value": 0.17, "unit": "pg/mg"}, {"measurement": "IL-10 level in the colon", "setting": "[2]; day 7, plus rFXI 20 ug/day", "value": 5.8, "unit": "pg/mg"}, {"measurement": "IL-12 level in the colon", "setting": "[2]; day 7, plus rFXI 20 ug/day", "value": 96, "unit": "pg/mg"}, {"measurement": "KC level in the colon", "setting": "[2]; day 7, plus rFXI 20 ug/day", "value": 62, "unit": "pg/mg"}, {"measurement": "TNF-α level in the colon", "setting": "[2]; day 7, plus rFXI 20 ug/day", "value": 0.91, "unit": "pg/mg"}, {"measurement": "BAL eosinophil recruitment (in words)", "setting": "[3]", "value": "decreased the eosinophil recruitment"}, {"measurement": "Eosinophils", "setting": "[3]; percentage of total cells in BAL, 50 mg/kg s.c. twice a week for 4 weeks", "value": 32, "unit": "%"}]}
